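Five concentrations, 48 hours, 96-well plates. Here, GI50 denotes the concentration required for 50% inhibition of growth.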 Active and inactive are the calls of the source. Rule as the data show it: active = GI50 up to about 1.1 µM and inactive = higher.
How the values were obtained:
Test in all cases: DTP human tumour cell line panel, 48 h
[1] = system: OVCAR-4
[2] = system: SR
[3] = system: SNB-75
[4] = system: IGROV-1
[5] = system: Malme-3M
[6] = system: 786-0
[7] = system: SN12C
[8] = system: COLO 205
[9] = system: SK-MEL-5
[10] = system: M14
[11] = system: HT-29
[12] = system: UO-31
[13] = system: MDA-N
[14] = system: BT-549
[15] = system: MDA-MB-435
[16] = system: A549
[17] = system: MDA-MB-231
[18] = system: NCI-H226
[19] = system: OVCAR-5
[20] = system: UACC-62

Measured: GI50

CSC1=NN(C(C)=O)C(C(OC(C)=O)C(OC(C)=O)C(OC(C)=O)C(COC(C)=O)OC(C)=O)S1 (stereo not given)
inactive: [1] > 100 µM | [2] > 100 µM | [3] > 100 µM | [4] > 100 µM | [5] > 100 µM | [6] > 100 µM | [7] > 100 µM | [8] > 100 µM | [9] > 100 µM | [10] > 100 µM | [11] > 100 µM | [12] 11 µM | [13] > 100 µM | [14] > 100 µM | [15] > 100 µM | [16] > 100 µM | [17] > 100 µM | [18] > 100 µM | [19] > 100 µM | [20] > 100 µM

CC(=O)OCCN(C1=NCCN1)/[N+](C=c1ccc(=C=[N-])cc1)=C/c1ccc(C#N)cc1
inactive: [1] > 100 µM | [2] > 100 µM | [3] > 100 µM | [4] > 100 µM | [5] > 100 µM | [6] > 100 µM | [7] > 100 µM | [8] > 100 µM | [9] > 100 µM | [10] > 100 µM | [11] > 100 µM | [12] > 100 µM | [13] > 100 µM | [14] > 100 µM | [15] > 100 µM | [16] > 100 µM | [17] > 100 µM | [18] > 100 µM | [19] > 100 µM | [20] > 100 µM

Cn1c2ccccc2n2c3ccccc3c(=O)c(C#N)c12
inactive: [1] > 100 µM | [2] 2.84 µM | [3] 15 µM | [4] 6.01 µM | [5] 4.27 µM | [6] 6.01 µM | [7] 17.9 µM | [8] 9.2 µM | [9] 2.27 µM | [10] > 75.3 µM | [11] 4.53 µM | [12] 4.14 µM | [13] > 48.5 µM | [14] 43.2 µM | [15] 71.8 µM | [16] 4.94 µM | [17] 13.9 µM | [18] 2.68 µM | [19] > 70 µM | [20] 8.11 µM
